Values after ≈ are worked out from the molar mass of the structure shown.
Key:
[1] = Solubility of 5-azacytidine in various solvents at ambient temperature (visual, solvent aliquot addition); type: physicochemical; conditions: thermodynamic from solid
Experimental: Solubility was estimated by treating a weighed sample of 5-azacytidine with measured aliquots of the test solvent at ambient temperature, with shaking and/or sonication between aliquots. Dissolution was determined by visual inspection. Solubility numbers were calculated by dividing the […]. The actual solubilities may be greater than the numbers calculated because of the use of solvent aliquots that were too large or because of slow dissolution rates. […] The solubility number is expressed as “greater than” if dissolution occurred on addition of the first solvent aliquot.

[2] = test system: subjects with higher-risk MDS; conditions: Phase III study, administered subcutaneously; cited from earlier work

Nc1ncn([C@@H]2O[C@H](CO)[C@@H](O)[C@H]2O)c(=O)n1 [5-azacytidine, 4-amino-1-β-D-ribofuranosyl-1,3,5-triazin-2(1H)-one]
solubility ([1]; 1:1 methanol/water, aqueous with cosolvent or surfactant or cyclodextrin, 1:1 methanol/water): 2800 µg/mL (≈ 11.5 mM) | solubility ([1]; 1:2 methanol/water, aqueous with cosolvent or surfactant or cyclodextrin, 1:2 methanol/water): 3100 µg/mL (≈ 12.7 mM) | solubility ([1]; 1:2 methanol/water, aqueous with cosolvent or surfactant or cyclodextrin, 1:2 methanol/water (second line printed with this solvent)): 4600 µg/mL (≈ 18.8 mM) | solubility ([1]; DMF, organic solvent or mixture): 1700 µg/mL (≈ 6.96 mM) | solubility ([1]; DMSO, organic solvent or mixture): 2200 µg/mL (≈ 9.01 mM) | Survival and time to AML transformation or death [2]: significantly prolonged survival and time to AML transformation or death
